# Where a name gives a salt, the structure may show the parent alone.
# Assay: Pharmacokinetic evaluation in mice after intravenous and oral administration
# Assay type: in vivo
# Details: mouse, plasma, male CD-1 mice
# Method: CD-1 mice (male, Beijing Vital River Laboratory Animal Technology Co., Ltd.)
# The pharmacokinetic characteristics of rodents after intravenous and oral administration of the compounds were tested using a standard protocol. In the experiment, the candidate compounds were prepared into clear solutions and administered to mice by single intravenous injection and oral administration. The intravenous and oral vehicles were mixed vehicles of 10% DMSO+90% (20% SBE-β-CD). This project included four male CD-1 mice, two of which were administered intravenously at a dosage of 1 mg/kg, and plasma samples were collected at 0.083 hours, 0.25 hours, 0.5 hours, 1 hour, 2 hours, 4 hours, 8 hours, and 24 hours after administration; the other two mice were orally administered by gavage at a dosage of 2 mg/kg, and plasma samples were collected at 0.25 hours, 0.5 hours, 1 hour, 2 hours, 4 hours, 8 hours, and 24 hours after administration. Blood samples were placed on ice after collection, and plasma was separated by centrifugation within 1 hour (centrifugation conditions: 6000 g, 3 minutes, 2-8° C.). Plasma samples were stored in a refrigerator at −80° C. before analysis. Plasma concentrations were quantitatively analyzed using LC-MS/MS analysis method, and pharmacokinetic parameters were calculated such as peak concentration (Cmax), clearance rate (CL), half-life (T1/2), […] (Vdss), area under concentration-time curve (AUC0-last), and bioavailability (F), etc.
smiles,measurement,setting,value
Nc1cc2c(cn1)-c1ccc3c(=O)c(C(=O)O)cn(C4CC4)c3c1COC2 [Hydrochloride of Compound 7],bioavailability,"IV 1 mg/kg, oral gavage 2 mg/kg, read-out: Bioavailability F",132%
same,Cmax,"IV 1 mg/kg, oral gavage 2 mg/kg, route of Cmax not given, read-out: Peak concentration Cmax",683 nM
same,clearance,"IV 1 mg/kg, read-out: Clearance rate CL",132 mL/min/kg
same,half-life,"IV 1 mg/kg, read-out: Half-life T1/2 (IV) (converted)",20.5 min
same,Vd,"IV 1 mg/kg, read-out: Tissue distribution Vdss",3.04 L/kg
same,AUC(0-t),"oral gavage 2 mg/kg, read-out: Area under concentration-time curve AUC0-last PO",0.924 µM·h

# Reference: patent US20250042912A1, “NOVEL NON-FLUORINATED QUINOLONE COMPOUND AND USE THEREOF” (priority 2021, published 2025)
